Laboratory results: publication PMC12134304, “Exploring novel of 1,2,4-triazolo[4,3-a]quinoxaline sulfonamide regioisomers as anti-diabetic and anti-Alzheimer agents with in-silico molecular docking simulation” (Scientific Reports, 2025)

Experiments:
Assay type in all cases: biochemical
[1] = target: α-glucosidase; assay: in vitro enzyme inhibition assay (Pistia-Brueggeman method); conditions: read-out: The in vitro median inhibitory concentrations (IC50 ± SE) (μM) / Anti-diabetic activity ^a / α-glucosidase
[2] = target: α-amylase; assay: in vitro enzyme inhibition assay (Wickramaratne method); conditions: read-out: The in vitro median inhibitory concentrations (IC50 ± SE) (μM) / Anti-diabetic activity ^a / α-amylase
[3] = target: acetylcholinesterase (AChE) (Homo sapiens, UniProt P22303); assay: Ellman's method, single-concentration percent inhibition
Chain of acetylcholinesterase (AChE) (P22303 32-614): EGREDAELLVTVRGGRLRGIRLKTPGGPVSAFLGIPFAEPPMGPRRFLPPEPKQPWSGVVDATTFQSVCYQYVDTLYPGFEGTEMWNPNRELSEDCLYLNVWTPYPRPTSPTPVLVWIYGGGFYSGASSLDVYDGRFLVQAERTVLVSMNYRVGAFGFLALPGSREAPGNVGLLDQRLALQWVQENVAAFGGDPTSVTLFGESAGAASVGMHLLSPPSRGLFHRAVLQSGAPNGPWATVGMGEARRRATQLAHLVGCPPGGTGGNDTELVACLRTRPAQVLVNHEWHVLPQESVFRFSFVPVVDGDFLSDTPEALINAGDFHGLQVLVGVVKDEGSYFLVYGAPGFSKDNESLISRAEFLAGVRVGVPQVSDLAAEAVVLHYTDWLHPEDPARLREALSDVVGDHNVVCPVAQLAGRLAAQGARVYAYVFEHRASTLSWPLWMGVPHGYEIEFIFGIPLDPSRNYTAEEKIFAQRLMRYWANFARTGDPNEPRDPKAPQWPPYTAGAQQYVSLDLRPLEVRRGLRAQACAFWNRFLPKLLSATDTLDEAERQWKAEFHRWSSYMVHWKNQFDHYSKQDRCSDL

SMILES | IC50 [1] [µM] | IC50 [2] [µM] | The in vitro inhibitory percentage (IP ± SE) of the designed two isomers sulfonamide quinoxaline derivatives at 100 μM / Anti-Alzheimer activity ^a / AChE [3]
C=CCNc1nnc2c(N3CCCC3)nc3ccc(S(=O)(=O)N4CCCC4)cc3n12 [10a, N-Allyl-4-(pyrrolidin-1-yl)-8-(pyrrolidin-1-ylsulfonyl)-[1,2,4]triazolo[4,3-a]quinoxalin-1-amine] | 3.46 ± 0.06 | 6.89 ± 0.09 | 
Cc1nnc2c(N3CCCC3)nc3cc(S(=O)(=O)N4CCCC4)ccc3n12 [11b, 1-Methyl-4-(pyrrolidin-1-yl)-7-(pyrrolidin-1-ylsulfonyl)-[1,2,4]triazolo[4,3-a]quinoxaline] |  |  | 44.78 ± 0.01
